From publication PMC10812672, “Short Antimicrobial Peptide Derived from the Venom Gland Transcriptome of Pamphobeteus verdolaga Increases Gentamicin Susceptibility of Multidrug-Resistant Klebsiella pneumoniae” (Antibiotics, 2023)
Ends that are not written are not given here.

Columns and labels:
[1] = system: E. coli ATCC® 8739; type: cell-based, Escherichia coli; conditions: CLSI broth microdilution, Mueller-Hinton broth, peptide 30 µM, ~6 × 10^6 CFU/mL, 24 h 37 °C, OD600; triplicate, three independent assays; NA = no activity
Description: (§1) Activity screening was conducted using the broth microdilution method at a fixed peptide concentration of 30 µM against E. coli ATCC® 8739 and 25922, as well as S. aureus ATCC® 6538 and 29213. The bacterial density used for screening was approximately 6 × 10^6 CFU/mL [30]. Peptide activity measurements were conducted in terms of the growth inhibition percentage. No dose-response curves were generated during the screening phase as a resource optimization strategy in the initial activity evaluation. […] For S. aureus ATCC® 6538 and S. aureus ATCC® 29213, growth inhibition ranged from 0% to 140% and 0% to 98%, respectively (Table 1).
(§2) The evaluation of the antimicrobial activity of the peptides was conducted using the CLSI’s broth microdilution method for bacterial susceptibility testing. For the screening phase, peptides were evaluated at a single 30 μM concentration, in triplicate and in three independent assays, against the E. coli ATCC® 8739, E. coli ATCC® 25922, S. aureus ATCC® 6538, or S. aureus ATCC® 29213 reference USP and CLSI strains. For the determination of MIC, MBC, or IC50, peptides or antibiotics were evaluated in concentrations between 1.56–200 µM. These evaluations were conducted in triplicate and in three independent assays, against the E. coli ATCC® 25922, S. aureus ATCC® 29213, E. faecalis ATCC® 49532, P. aeruginosa ATCC® 9027, and K. pneumoniae ATCC® BAA-1705, or the clinically isolated MDR strain. In detail, 1 mL of a glycerol stock solution of the ATCC® or clinically isolated bacterial strain was added to 9 mL of Mueller-Hinton Broth and incubated for 18 h, 180 rpm and 37 °C (Incubator 1000, Heidolph Instruments, Schwabach, Germany). After the incubation, 1 mL of the previous solution was transferred to a new recipient containing 9 mL of fresh Mueller-Hinton broth and incubated for 4 h, 180 rpm and 37 °C (Incubator 1000, Heidolph Instruments, Schwabach, Germany). During the second incubation, the peptides or the antibiotics were dissolved in PBS pH 7.20 in concentrations between 19.53–2500 µM (MC5 Micro Balance, Sartorius AG, Göttingen, Germany). An amount of 10 µL of either peptide or antibiotic was dispensed in triplicate in 96-well flat bottom culture plates, along with 10 µL of PBS (Negative activity control), BTM-P1 (Positive activity control), or 10 µL of Mueller-Hinton broth (Blank); then, 110 µL of Mueller-Hinton broth was poured in all wells. Following this, the bacteria were suspended in Mueller-Hinton broth up to a concentration of approximately 1.50 × 10^8 CFU/mL, as measured by optical density at 600 nm between 0.06 to 0.11 (0.5 McFarland standard), in a Multiskan SkyHigh spectrophotometer (ThermoFisher Scientific, Waltham, MA, USA). Amounts of 5 µL of the 1.50 × 10^8 CFU/mL suspension were added to each well (except for the blank) for a final well concentration of approximately 6 × 10^6 CFU/mL. The plate was incubated for 24 h at 37 °C (BE 500, Memmert GmbH, Büchenbach, Germany) and optical density was measured at 600 nm in a Multiskan SkyHigh spectrophotometer (ThermoFisher Scientific, Waltham, MI, USA). Following the measurement of optical density, plates were visually inspected to determine the MIC. Subsequently, 100 µL of the concentration associated to the MIC and 100 µL of the next higher concentration were added to Petri dishes containing Mueller-Hinton Agar. The dishes were then incubated for 24 h at 37 °C (BE 500, Memmert GmbH, Büchenbach, Germany). After incubation, the Petri dishes were visually inspected, and the MBC was determined in the absence of growth. IC50 values were interpolated from regressions with correlation values above 0.70. Growth inhibition percentages were calculated as follows: Growth inhibition %=1−AbsPEPTIDE or ANTIBIOTIC−Median AbsBLANK/Median AbsPBS−Median AbsBLANK×100

[2] = system: E. coli ATCC® 25922; type: cell-based, Escherichia coli; conditions: CLSI broth microdilution, Mueller-Hinton broth, peptide 30 µM, ~6 × 10^6 CFU/mL, 24 h 37 °C, OD600; triplicate, three independent assays; NA = no activity
Description: as §1, §2

[3] = system: S. aureus ATCC® 6538; type: cell-based, Staphylococcus aureus; conditions: CLSI broth microdilution, Mueller-Hinton broth, peptide 30 µM, ~6 × 10^6 CFU/mL, 24 h 37 °C, OD600; triplicate, three independent assays; NA = no activity
Description: as §1, §2

[4] = system: S. aureus ATCC® 29213; type: cell-based, Staphylococcus aureus; conditions: CLSI broth microdilution, Mueller-Hinton broth, peptide 30 µM, ~6 × 10^6 CFU/mL, 24 h 37 °C, OD600; triplicate, three independent assays; NA = no activity
Description: as §1, §2

[5] = system: E. coli ATCC® 25922; type: cell-based, Escherichia coli; conditions: for MIC: 1.56–200 µM, visual inspection, triplicate, three independent assays; for MIC / MBC: 24 h 37 °C; for MBC: plating on Mueller-Hinton agar, absence of growth
Description: (§3) The nine AMPs identified in the initial screening were evaluated at concentrations between 1.56–200 µM, against E. coli ATCC® 25922, S. aureus ATCC® 29213, E. faecalis ATCC® 49532, P. aeruginosa ATCC® 9027, and K. pneumoniae ATCC® BAA-1705 (Supplementary Figures S2–S6). […] Only PvAMP66 and PvAMP172 reached the MBC for S. aureus at 50 µM and 100 µM, respectively (Table 2).
as §2

[6] = system: P. aeruginosa ATCC® 9027; type: cell-based, Pseudomonas aeruginosa; conditions: for MIC: 1.56–200 µM, 24 h 37 °C, visual inspection, triplicate, three independent assays; for MBC: plating on Mueller-Hinton agar, absence of growth
Description: as §3, §2

[7] = system: multidrug-resistant (MDR) strain of K. pneumoniae, clinical isolate; assay: microbe, parasite or virus in culture; type: cell-based, Klebsiella pneumoniae; conditions: MDR K. pneumoniae; at 100 μM; complete resistance
Description: A multidrug-resistant (MDR) strain of K. pneumoniae was identified and isolated from a tertiary-level hospital in Medellin, Colombia, using the VITEK-2 system (bioMérieux, Marcy-l’Étoile, France). The MDR strain was evaluated against several antibiotics at concentrations of 1.56–100 μM. […] In contrast, the strain was susceptible to doxycycline (Supplementary Figure S7g) and chloramphenicol (Supplementary Figure S7h), with MICs of 50 μM and 100 µM, respectively (Table 3). […] All of P. verdolaga’s AMPs were evaluated against the clinical isolate at concentrations of 1.56–200 µM (Supplementary Figure S8). […] A growth inhibition kinetic assay was conducted. […] All of P. verdolaga’s peptides at 100 μM induced morphological changes in the MDR K. pneumoniae, indicating membrane interactions, even though no significant inhibition was observed (Supplementary Figure S9).
as §2, with “Growth inhibition percentages were calculated as follows: Growth inhibition %=1−AbsPEPTIDE or ANTIBIOTIC−Median AbsBLANK/Median AbsPBS−Median AbsBLANK×100” left out

| Substance | E. coli ATCC® 8739 (Inhibition %) [1] | S. aureus ATCC® 6538 (Inhibition %) [3] | inhibition [4] | MIC [5] | MBC [5] | E. coli ATCC® 25922 (Inhibition %) [2] | S. aureus ATCC® 29213 (Inhibition %) [4] | further results |
| --- | --- | --- | --- | --- | --- | --- | --- | --- |
| ILKPFMLRR-NH2 [PvAMP84] | 24.29 ± 6.74 % | – | – | – | – | – | – | inhibition [2]: 11.3 ± 3.72% |
| LLSKIFG-NH2 [PvAMP16] | – | 42.06 ± 4.29 % | 13.8 ± 6.48% | – | – | – | – | – |
| LLTGIKS-NH2 [PvAMP30] | – | 35.52 ± 7.29 % | 7.34 ± 10.3% | – | – | – | – | – |
| QCRKLCFRNRCLTYCRGRG-NH2 (disulfide (positions not given here)) [PvAMP183, predicted P. verdolaga AMP] | 48.26 ± 2.41 % | 47.36 ± 1.27 % | 4.71 ± 21.9% | 25 µM | 50 µM | 64.66 ± 1.26 % | – | IC50 ([5]; growth inhibition OD600, interpolated from regression, 95% confidence interval in parentheses, read-out: IC50): 26.9 µM; MIC [6]: 50 µM; IC50 ([6]; growth inhibition OD600, 95% confidence interval in parentheses): 48.3 µM; MBC [6]: 100 µM |
| RSVLKAHCRICRRRG-NH2 (disulfide) [PvAMP164, predicted P. verdolaga AMP] | 20.51 ± 4.31 % | 24.49 ± 10.18 % | – | 200 µM | 200 µM | 30.10 ± 3.90 % | 12.25 ± 1.29 % | MIC [6]: 100 µM; MBC [6]: 100 µM |
| SLFKFLA-NH2 [PvAMP8] | – | 47.95 ± 3.62 % | 11.9 ± 8.93% | – | – | – | – | – |
| SLWGMWR-NH2 [PvAMP7] | 26.74 ± 0.68 % | 37.89 ± 1.50 % | – | 200 µM | – | 18.21 ± 2.54 % | 23.66 ± 3.34 % | – |
| YRARCVIYC-NH2 (disulfide) [PvAMP69, predicted P. verdolaga AMP] | – | 32.32 ± 7.00 % | – | 200 µM | 200 µM | 19.08 ± 0.12 % | 29.81 ± 3.31 % | inhibition [1]: 1.75 ± 9.78% |
| penicillin | – | – | – | – | – | – | – | maximum growth inhibition [7]: ≤ 20% |
